In patent US20230242871A1, “GENERATION OF PRIMORDIAL GERM CELLS AND METHODS OF USING THE SAME” (The Board of Trustees of the Leland Stanfor Junior …, priority 2020, published 2023):

Tested on: NANOS3-mCherry hESCs
Assay: PGC differentiation of NANOS3-mCherry hESCs, flow cytometry for NANOS3-mCherry fluorescent reporter expression
Assay type: cell-based, human
Conditions: for efficiency upon SCF/EGF subtraction: SCF/EGF subtraction from D0.5-1.5; for efficiency upon SCF/EGF subtraction / effect of absence of SCF and EGF on PGC differentiation / requirement on the D0.5-D1.5 interval: FIG. 5C; for effect of absence of SCF and EGF on PGC differentiation: absence in the same time window (24 hrs at day 2); for requirement on the D0.5-D1.5 interval: posterior epiblast differentiation into PGCs
Source text: In the NANOS3-mCherry hESC line, a 2A-mCherry fluorescent reporter was inserted immediately downstream of the NANOS3 gene without disrupting its coding sequence (Irie et al., 2014). In the SOX17-GFP hESC line, a GFP fluorescent reporter was inserted immediately after the SOX17 start codon, thus functionally invalidating one SOX17 allele (Wang et al., 2011). In the NANOG-2A-YFP hESC line, Cas9 RNP/AAV6-based genome editing (Martin et al., 2019) was used to insert a 2A-iCaspase9-2A-YFP fluorescent reporter immediately downstream of the NANOG gene without disrupting the NANOG coding sequence.
hPSC differentiation into PGCs. Undifferentiated hPSCs were maintained in mTeSR1 + 1% penicillin/streptomycin and enzymatically passaged (Accutase, 1:8-1:12 split) for differentiation. After overnight recovery in mTeSR1 + Thiazovivin (ROCK inhibitor, 5 µM), the following morning, hPSCs were briefly washed (DMEM/F12) and differentiated into posterior epiblast for 12 hours (100 ng/mL Activin + 3 µM CHIR99021 + 10 µM Y-27632) in aRB27 basal media, which comprised Advanced RPMI 1640 medium supplemented with 1% B27 supplement, 0.1 mM non-essential amino acids (NEAA), 100 U/ml Penicillin + 0.1 mg/ml Streptomycin, and 2 mM L-Glutamine (Kobayashi et al., 2017). Subsequently, […], […], […], 100 ng/mL SCF, 50 ng/mL EGF, 1 µM XAV939, and 10 µM Y-27632 for 24 hours (all in aRB27 basal media). For comparison, published PGC differentiation protocols (Sasaki et al., 2015; Kobayashi et al., 2017) were performed as described previously.
Flow cytometry and fluorescence-activated cell sorting (FACS) for cell-surface marker expression. hPSCs or their differentiated derivatives were dissociated using TrypLE Express (Gibco), were washed off the plate with FACS buffer (PBS + 0.1% BSA fraction V [Gibco] + 1 mM EDTA [Gibco] + 1% penicillin/streptomycin [Gibco]) and were pelleted by centrifugation (5 mins, 4° C.). Subsequently, cell pellets were directly resuspended in FACS buffer containing pre-diluted primary antibodies (listed below), thoroughly triturated to ensure a single cell suspension, and primary antibody staining was conducted for 30 mins on ice. Afterwards, cells were washed with an excess of FACS buffer and pelleted again, and this was conducted one more time. Finally, washed cell pellets were resuspended in FACS buffer containing 1.1 µM DAPI (Biolegend), and were strained through a 35 µm filter. Flow cytometry and sorting was conducted on a BD FACSAria II (Stanford Stem Cell Institute FACS Core).

LIF: LIF, commonly used to enhance PGC survival (Peprotech 300-05)
requirement of LIF for the second differentiation stage (FIG. 5E): dispensable
efficiency upon addition of LIF (LIF added during D0.5-3.5, readout D3.5, FIG. 5E): does not improve efficiency

SCF: stem cell factor, also known as Kit ligand
efficiency upon SCF/EGF subtraction (readout D3.5): enhance efficiency
effect of absence of SCF and EGF on PGC differentiation: superfluous
requirement on the D0.5-D1.5 interval: dispensable

O=c1[nH]c(-c2ccc(C(F)(F)F)cc2)nc2c1CSCC2 [XAV939, 3,5,7,8-Tetrahydro-2-[4-(trifluoromethyl)phenyl]-4H-thiopyrano[4,3-d]pyrimidin-4-one, reference compound]
differentiation of posterior epiblast into PGCs (phase II: 3 days in PGC-specifying media after 12 hours WNT agonist (phase I), FIG. 1F): promotes differentiation of posterior epiblast into PGCs

EGF: epidermal growth factor, UniProt P01133 (NSDSECPLSHDGYCLHDGVCMYIEALDKYACNCVVGYIGERCQYRDLKWWELR; UniProt P01133 971-1023, looked up)
efficiency upon SCF/EGF subtraction (readout D3.5): enhance efficiency
effect of absence of SCF and EGF on PGC differentiation: superfluous
requirement on the D0.5-D1.5 interval: dispensable
